Measured values from US8445505B2 (IRM LLC, priority 2008, dated 2013).

The compounds below were run against IGF1R Ba/F3 (Homo sapiens, UniProt P08069) (assay: Ba/F3 Cell Viability Inhibition Assay (Tel-TK transformed Ba/F3 lines)). Details: Tel-TK (IGF1R) transformed Ba/F3 cells, 48 hours incubation, cell viability (Britelite luminescence).
Type: cell-based, murine
Set-up: the printed alternative
Text: Ba/F3 is a murine IL-3-dependent pro-B lymphoma cell line. Parental Ba/F3 cells are used to generate a panel of sublines whose proliferation and survival is rendered IL-3-independent by stable transduction with individual tyrosine kinases activated by fusion with the amino-terminal portion of TEL (amino acid 1-375) or BCR. In order to generate Ba/F3 cell lines transformed by Tel-Tyrosine Kinase (TK) fusions, parental Ba/F3 cells are infected with a retrovirus harboring each TEL-fusion kinase and subjected to puromycin selection and IL-3 withdrawal to obtain IL-3-independent, transformed Ba/F3 cells.
Each transformed Ba/F3 cells are cultured in RPMI-1640 media (Gibco Cat #11875093, Carlsbad, Calif.) supplemented with 10% FBS (Hyclone Cat #SV30014.03, Logan, Utah), 4.5 g/L glucose (Sigma #G5400, St.Louis, Mo.), 1.5 g/L sodium bicarbonate (Biowhittaker #17-613E, Walkersville, Md.) and Pen/Strep (Gibco #10378-016, Carlsbad, Calif.). Cells are splitted twice weekly.
The potency of test compounds against various Tel-TK transformed Ba/F3 lines is determined as follows. Exponentially growing BaF3 Tel-TK cells are diluted in fresh medium to 75,000 cells/mL and seeded into 384-well plates (3750 cells/well) at 50 μL/well using a gill liquid dispenser (BioTek, Winooski, Vt., USA). Duplicate plates are run for each cell line. Test and control compounds are serially diluted with DMSO and arrayed in a polypropylene 384-well plate. 50 nL of compound is transferred into the assay plates using a pin-transfer device, and the plates are incubated at 37° C. (5% CO2) for 48 hours. 25 μL Britelite (Perkin Elmer) is added and luminescence is quantified using Analyst GT (Molecular Devices). Custom curve-fitting software is used to produce a logistic fit of percent cell viability as a function of the logarithm of inhibitor concentration. The IC50 is interpolated as the concentration of compound needed to reduce cell viability to 50% of a DMSO control. Parental Ba/F3 cells that are maintained and cultured in presence of IL-3 (1 ng/ml in final) are diluted in fresh medium containing IL-3 (1 ng/ml in final) to 75,000 cells/mL following the same procedure as described above.

IGF1R Ba/F3, sequence (P08069 999-1274 limits assumed): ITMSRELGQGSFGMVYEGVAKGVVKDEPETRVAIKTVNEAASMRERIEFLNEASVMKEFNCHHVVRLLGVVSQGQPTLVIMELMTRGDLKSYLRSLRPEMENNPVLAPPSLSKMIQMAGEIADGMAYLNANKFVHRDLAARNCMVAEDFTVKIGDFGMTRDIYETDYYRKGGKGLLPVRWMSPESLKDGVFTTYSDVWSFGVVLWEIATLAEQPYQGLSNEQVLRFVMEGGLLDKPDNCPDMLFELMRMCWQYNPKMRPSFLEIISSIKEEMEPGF

| SMILES | IC50 [nM] |
| --- | --- |
| C/C(=N\O)c1cc(C)c(Nc2ncc(Cl)c(Nc3cc(C)[nH]n3)n2)cc1C [Compound 29, 1-(4-(5-chloro-4-(5-methyl-1H-pyrazol-3-ylamino)pyrimidin-2-ylamino)-2,5-dimethylphenyl)ethanone oxime] | 51 |
| Cc1cc(Nc2nc(Nc3cc(C)c(C(=O)N(C)C)cc3C)ncc2Cl)n[nH]1 [Compound 30, 4-(5-chloro-4-(5-methyl-1H-pyrazol-3-ylamino)pyrimidin-2-ylamino)-N,N,2,5-tetramethylbenzamide] | 539 |
| Cc1cc(Nc2nc(Nc3cc(C)c(C(=O)NCCN(C)C)cc3C)ncc2Cl)n[nH]1 [Compound 31, 4-(5-chloro-4-(5-methyl-1H-pyrazol-3-ylamino)pyrimidin-2-ylamino)-N-(2-(dimethylamino)ethyl)-2,5-dimethylbenzamide] | 659 |
| Cc1cc(Nc2nc(Nc3cc(C)c(C(=O)N4CCOCC4)cc3C)ncc2Cl)n[nH]1 [Compound 32, (4-(5-chloro-4-(5-methyl-1H-pyrazol-3-ylamino)pyrimidin-2-ylamino)-2,5-dimethylphenyl)(morpholino)methanone] | 451 |
| Cc1cc(Nc2nc(Nc3cc(C)c(C4CCC(=NO)CC4)cc3C)ncc2Cl)n[nH]1 (stereo not shown) [Compound 33, 4-(4-(5-chloro-4-(5-methyl-1H-pyrazol-3-ylamino)pyrimidin-2-ylamino)-2,5-dimethylphenyl)cyclohexanone oxime] | 15 |
| CO/N=C(\C)c1cc(C)c(Nc2ncc(Cl)c(Nc3cc(C)[nH]n3)n2)cc1C [Compound 34, 1-(4-(5-chloro-4-(5-methyl-1H-pyrazol-3-ylamino)pyrimidin-2-ylamino)-2,5-dimethylphenyl)ethanone O-methyl oxime] | 269 |
| C/C(=N\OCCN(C)C)c1cc(C)c(Nc2ncc(Cl)c(Nc3cc(C)[nH]n3)n2)cc1C [Compound 35, 1-(4-(5-chloro-4-(5-methyl-1H-pyrazol-3-ylamino)pyrimidin-2-ylamino)-2,5-dimethylphenyl)ethanone O-2-(dimethylamino)ethyl oxime] | 121 |
| C/C(=N\OCCN1CCOCC1)c1cc(C)c(Nc2ncc(Cl)c(Nc3cc(C)[nH]n3)n2)cc1C [Compound 36, 1-(4-(5-chloro-4-(5-methyl-1H-pyrazol-3-ylamino)pyrimidin-2-ylamino)-2,5-dimethylphenyl)ethanone O-2-morpholinoethyl oxime] | 187 |
| Cc1cc(Nc2nc(Nc3cc(C)c([C@H]4CC[C@H](N5CCOCC5)CC4)cc3C)ncc2Cl)n[nH]1 [Compound 37, 5-chloro-N^2-(2,5-dimethyl-4-(4-trans-morpholinocyclohexyl)phenyl)-N^4-(5-methyl-1H-pyrazol-3-yl)pyrimidine-2,4-diamine] | 11 |
| Cc1cc(Nc2nc(Nc3cc(C)c([C@H]4CC[C@@H](N5CCOCC5)CC4)cc3C)ncc2Cl)n[nH]1 [Compound 38, 5-chloro-N^2-(2,5-dimethyl-4-(4-cis-morpholinocyclohexyl)phenyl)-N^4-(5-methyl-1H-pyrazol-3-yl)pyrimidine-2,4-diamine] | 9 |
| Cc1cc(Nc2nc(Nc3cc(C)c(CN4CCOCC4)cc3C)ncc2Cl)n[nH]1 [Compound 39, 5-Chloro-N^2-(2,5-dimethyl-4-(morpholinomethyl)phenyl)-N^4-(5-methyl-1H-pyrazol-3-yl)pyrimidine-2,4-diamine] | 151 |
| Cc1cc(Nc2nc(Nc3cc(C)c(C4CCC(=O)CC4)cc3C)ncc2C(F)(F)F)n[nH]1 [Compound 40, 4-(2,5-dimethyl-4-(4-(5-methyl-1H-pyrazol-3-ylamino)-5-(trifluoromethyl)pyrimidin-2-ylamino)phenyl)cyclohexanone] | 49 |
| Cc1cc(Nc2nc(Nc3cc(C)c([C@H]4CC[C@H](O)CC4)cc3C)ncc2C(F)(F)F)n[nH]1 [Compound 41, trans-4-(2,5-dimethyl-4-(4-(5-methyl-1H-pyrazol-3-ylamino)-5-(trifluoromethyl)pyrimidin-2-ylamino)phenyl)cyclohexanol] | 25 |
